Test results: PubChem BioAssay AID2305 (GlaxoSmithKline (GSK), 2010)

What follows are compounds tested on P. falciparum 3D7 growth, pLDH absorbance (assay: P. falciparum 3D7 growth inhibition, dose response, strain 3D7 (AID 2305)).
In the case of CN1CCN(CCCN(Cc2csc(-c3ccc(CNCc4ccccc4)cc3)n2)S(=O)(=O)c2ccc(F)cc2)CC1, the IC50 is reported as 860 nM.
Work on Cc1noc(C)c1-c1ccc(C(=C2CCCCCCC2)c2ccc(O)cc2)cc1 yielded an IC50 of 1050 nM.
COc1cc(F)c2ncc(F)c(CCN3C[C@H](CNCc4ccc5c(n4)NC(=O)CS5)[C@H](O)C3)c2c1 gave an IC50 of 460 nM.
In the case of OC1CCCN(Cc2ccc(-c3ccc(-c4nc5ccc(F)cc5[nH]4)s3)cc2)C1 (configuration not stated), the IC50 is reported as 850 nM.
In the case of CCCCCCCCn1c2c(c(=N)c3c1CCC3)CCC2, the IC50 is reported as 220 nM.
CCCCCc1cc(O)c2c(c1)OC(C)(C)CC2C1=CCN(Cc2cccnc2)CC1 (configuration not stated) showed an IC50 of 990 nM.
In the case of CN1CCN(c2ccc(CNc3ccc4ncc(-c5cccc(OC(F)(F)F)c5)n4n3)cc2)CC1, the IC50 is reported as 860 nM.
COc1ccc(CNc2ncnc3c2[nH]c2ccc(F)cc23)cc1 showed an IC50 of 980 nM.
Compound O=C(/C=C/c1ccc(Cl)c(Cl)c1)NCCCCCN1CCC(NC(=O)c2ccc(F)cc2F)CC1 has an IC50 of 760 nM.
CCN(CC)CCN(Cc1ccc(-c2ccc(C(F)(F)F)cc2)cc1)C(=O)Cn1c(CCc2cccc(F)c2F)nc(=O)c2ccc(C)cc21 gave an IC50 of 670 nM.
CCCSc1nc2c(c(=O)n1CCc1ccccc1)C1(CCCC1)Cc1ccccc1-2 showed an IC50 of 700 nM.
With COc1ccc(NC(=O)C2c3ccccc3C(=O)N(CC(C)C)C2c2cccs2)cc1OC (configuration not stated) the IC50 was 200 nM.
Work on Cc1cccc(Cn2c(C(N)=O)nn(-c3ccc([N+](=O)[O-])cc3C#N)c2=S)c1 yielded an IC50 of 730 nM.
With O=C(Nc1ccc2ccccc2c1)N1CCC(NCc2cccc([N+](=O)[O-])c2)CC1 the IC50 was 860 nM.
For CCN(CC)CCOc1ccc(C(O)(C#CC(O)(c2ccc(OCCN(CC)CC)cc2)c2ccc([N+](=O)[O-])cc2)c2ccc([N+](=O)[O-])cc2)cc1 (configuration not stated), the IC50 was 1730 nM.
With CN(C)CCNCc1ccc(-c2ccc3c(Nc4ccc(F)cc4Cl)ccnc3c2)o1 the IC50 was 140 nM.
Compound O=C1CCCN1CCCNCc1ccc(-c2ccc(-c3nc4ccc(C(F)(F)F)cc4[nH]3)s2)cc1 has an IC50 of 380 nM.
Work on CN(C)CCOc1ccc(-c2cc(-c3ccnc(N)n3)c(-c3ccc(Cl)c(O)c3)o2)cc1 yielded an IC50 of 980 nM.
CN(C)[C@@H]1C(=O)C(C(N)=O)=C(O)[C@@]2(O)C(=O)C3=C(O)c4c(O)ccc(C#Cc5ccccn5)c4C[C@H]3C[C@@H]12 showed an IC50 of 760 nM.
Cc1cccc2[nH]c(-c3ccc(-c4cccc(CN5CCN(CCN6CCOCC6)CC5)c4)s3)nc12 was tested, and the IC50 was 150 nM.
In the case of Cc1cccc2[nH]c(-c3ccc(-c4cccc(NC(=O)Nc5ccc(Cl)cc5)c4)s3)nc12, the IC50 is reported as 520 nM.
For CC(=O)NCCNc1cc(N2CCc3ncnc(Nc4ccc(OCc5c(F)cccc5F)c(Cl)c4)c3C2)ncn1, the IC50 was 160 nM.
In the case of Cc1ccc(NC(C)C(=O)Nc2ccc(C#N)cc2)cc1S(=O)(=O)N1CCCCC1 (configuration not stated), the IC50 is reported as 540 nM.
With Cc1cccc(N2C(N)=NC(N)=NC2(C)C)c1C the IC50 was 760 nM.
In the case of O=[N+]([O-])c1cccc(C=NNc2nc(Nc3ccccc3)nc(Nc3ccccc3)n2)c1, the IC50 is reported as 970 nM.
O=C(/C=C/c1ccc(Cl)c(Cl)c1)NCCCCCN1CCC(c2c[nH]c3ccc(O)cc23)CC1 was tested, and the IC50 was 890 nM.
Work on COc1ccc(NC(=O)c2cc(-c3ccc(NC(C)=O)cc3)cnc2N)cc1 yielded an IC50 of 810 nM.
CC[C@H](C)CNC(=O)c1cccc(-c2cccc(CN3CCC(N4CCCC4)CC3)c2)n1 was tested, and the IC50 was 710 nM.
Work on CCN1CCN(Cc2ccc3nc(-c4cc(C)n(Cc5cc(Cl)ccc5OCc5ccccc5)n4)[nH]c3c2)CC1 yielded an IC50 of 770 nM.
Work on COc1ccc(-n2nc(C(=O)NCc3ccccc3OC)c3ccccc3c2=O)cc1 yielded an IC50 of 220 nM.
Cc1ccc(C(=O)Nc2ccc(C)c(OC3CCN(Cc4ccco4)C3)c2)cc1 (configuration not stated) was tested, and the IC50 was 970 nM.
For O=C(N[C@@H](CC1CCCCC1)C(=O)NC1CCCc2ccccc21)c1ccc(O)c(-c2cccc(C(F)(F)F)c2)c1 (some centres not stated), the IC50 was 600 nM.
For CCC(C)(C)NC(=O)C(c1cccc(OC)c1)N(C(=O)CNC(=O)c1cccs1)c1ccc2c(c1)OCCO2 (configuration not stated), the IC50 was 830 nM.
O=C(NCCCCN1CCC(c2c[nH]c3ccccc23)CC1)c1ccc(-c2ccc(C(F)(F)F)cc2)cc1 was tested, and the IC50 was 800 nM.
Cc1cccc2[nH]c(-c3ccc(-c4ccc(CN5CCC(CO)CC5)cc4)s3)nc12 showed an IC50 of 810 nM.
Cc1cccc(N2CCN(Cc3cc(Cl)ccc3O)CC2)c1C was tested, and the IC50 was 770 nM.
Work on CS(=O)(=O)Nc1ccc(-c2cnc3[nH]cc(-c4ccc(C(=O)O)cc4)c3c2)cc1 yielded an IC50 of 800 nM.
